“Also recorded” adds a separate entry of the source. Blank lines part the entries; values can stand above or below the compound they belong to.
Key:
[1] = test system: A. lineolatus antennae; test: Electroantennogram (EAG) recordings; set-up: species or system Adelphocoris lineolatus; details: normalized to 2-octanone; for EAG response in words: male and female adult antennae, 10% (v/v) in paraffin oil, good ligand = more than 50% of 2-octanone response; for EAG response, male versus female antennae: Student t-test between sexes
Source text: Electrophysiological (EAG) recordings from each sex of adult individuals were made using Ag-AgCl glass pipette electrodes filled with 3 M KCl solution [69], [70]. The insects were anaesthetized by chilling, the antenna was amputated at the base and the tip of the antenna was cut off. The excised antenna was mounted between the electrodes by one teardrop of Spectra R360 electrically conductive gel (Syntech, Netherlands). The base of the antenna was connected to the reference electrode, while the terminal of tip-cut off antenna was connected to the recording electrode. An air stimulus controller CS-55 (Syntech, Netherlands) was used for air and chemical stimulants delivery with a constant flow of 10 ml/second flowed continuously over the antenna through the open end of the glass tube, which was positioned 1 cm from the antenna.
Twenty microliters of tested chemicals (100 µl/ml, 10% (v/v) dilution in paraffin oil except the hexadecanoic acid dissolved in hexane with 100 µg/ml) were applied to filter paper strips (1.5 cm×4 cm, Whatman No.1), and the solvent was allowed to evaporate for 30 sec before the paper strip was inserted into the glass Pasteur pipette cartridge (10 cm long, Fisher Scientific, Pittsburgh, Pennsylvania, USA). The chemicals were tested randomly, stimulus duration time was 0.5 second and an interval of at least 30 seconds was taken between stimulations for antennal recovery. Chemical odorants used for the EAG recordings are the same as used in the binding assays. […] The paraffin oil (Fluka, Buchs, Switzerland) was used to dissolve the chemicals and treated as control compound [71]. Each chemical was tested against six individual male and female antennae, and each antenna was tested three times. The signals were passed through a high impedance amplifier (CS-05 model, Syntech, the Netherlands), EAG responses were initially measured in millivolts (peak height of depolarization) and then converted to normalized responses by the Syntech EAG 2000 program (Syntech, the Netherlands). Response to the solvent control was subtracted from all normalized response and the normalized EAG responses were expressed as a percentage to the reference compound response. All results are presented as mean (±SE) normalized EAG responses. EAG responses between male and female individuals were compared with the Student t-test using SAS software.

[2] = target: T1, AlinCSP2 (Adelphocoris lineolatus, UniProt E7BLG5); test: biochemical; type: binding; details: for Ki: Figure 7B legend
Procedure: (§1) Fluorescence binding assays were performed on an F-380 fluorescence spectrophotometer (Tianjin, China) in a 1 cm light path quartz cuvette. The slit width used for excitation and emission was both 10 nm. The fluorescent probe N-phenyl-1-naphthylamine (1-NPN) was dissolved in methanol with a 1 mM stock solution. 1-NPN was excited at 337 nm and emission spectra were recorded between 390 nm and 530 nm.
(§2) All values reported were obtained from three independent measurements.
(§3) For determining binding constants, the intensity values corresponding to the maximum fluorescence emission were plotted against free ligand concentration. Bound ligand was evaluated from the values of fluorescence intensity assuming the protein was 100% active, with a stoichiometry of 1∶1 protein:ligand at saturation. The curves were linearized using Scatchard Plot.

[3] = target: T2, AlinCSP3 (Adelphocoris lineolatus, UniProt E7BLG4); test: biochemical; type: binding; details: for Ki: Figure 7B legend
Procedure: as §1, §2, §3

[4] = target: T3, AlinCSP1 (Adelphocoris lineolatus, UniProt J7EJ71); test: biochemical; type: binding; details: for Ki: Figure 7B legend
Procedure: as §1, §2, §3

[5] = test system: AlinCSP1-3; test: Fluorescence competitive binding assay, statements for the three CSPs together; set-up: species or system Adelphocoris lineolatus
Procedure: as §1, §2
as §3, with “Plot. Dissociation constants of the competitors were calculated from the corresponding IC50 values, using the equation: KD = [IC50]/(1+[1-NPN]/K1-NPN), where [1-NPN] is the free concentration of 1-NPN and K1-NPN is the dissociation constant of the AlinCSP1-3/1-NPN complex.” for “Plot.”

[6] = target: T3, AlinCSP1; test: Binding of fluorescent probe 1-NPN to AlinCSP1 (titration, Scatchard plot); details: 2 µM protein, 1-NPN 2-16 µM, read-out: dissociation constant of the AlinCSP1/1-NPN complex
Procedure: as §1, §2
as §3, with “Plot. Dissociation constants of the competitors were calculated from the corresponding IC50 values, using the equation: KD = [IC50]/(1+[1-NPN]/K1-NPN), where [1-NPN] is the free concentration of 1-NPN and K1-NPN is the dissociation constant of the AlinCSP1-3/1-NPN complex.” for “Plot.”

[7] = target: T2, AlinCSP3; test: Binding of fluorescent probe 1-NPN to AlinCSP3 (titration, Scatchard plot); details: 2 µM protein, 1-NPN 2-16 µM, read-out: dissociation constant of the AlinCSP3/1-NPN complex
Procedure: as §1, §2
as §3, with “Plot. Dissociation constants of the competitors were calculated from the corresponding IC50 values, using the equation: KD = [IC50]/(1+[1-NPN]/K1-NPN), where [1-NPN] is the free concentration of 1-NPN and K1-NPN is the dissociation constant of the AlinCSP1-3/1-NPN complex.” for “Plot.”

[8] = target: T1, AlinCSP2; test: Binding of fluorescent probe 1-NPN to AlinCSP2 (titration, Scatchard plot); details: 2 µM protein, 1-NPN 2-16 µM, read-out: dissociation constant of the AlinCSP2/1-NPN complex
Procedure: as §1, §2
as §3, with “Plot. Dissociation constants of the competitors were calculated from the corresponding IC50 values, using the equation: KD = [IC50]/(1+[1-NPN]/K1-NPN), where [1-NPN] is the free concentration of 1-NPN and K1-NPN is the dissociation constant of the AlinCSP1-3/1-NPN complex.” for “Plot.”

[9] = u.d. = KD not calculated because IC50>50 µM, read-out: KD (µM) AlinCSP2, given as u.d.
[10] = u.d. = KD not calculated because IC50>50 µM, read-out: KD (µM) AlinCSP3, given as u.d.
[11] = u.d. = KD not calculated because IC50>50 µM, read-out: KD (µM) AlinCSP1, given as u.d.
[12] = 1-NPN and protein at 2 µM, 50 mM Tris-HCl pH 7.4, KD calculated from IC50, mean of three measurements, read-out: KD (µM) AlinCSP2
[13] = 1-NPN and protein at 2 µM, 50 mM Tris-HCl pH 7.4, KD calculated from IC50, mean of three measurements, read-out: KD (µM) AlinCSP3
[14] = 1-NPN and protein at 2 µM, 50 mM Tris-HCl pH 7.4, KD calculated from IC50, mean of three measurements, read-out: KD (µM) AlinCSP1

T3 sequence (J7EJ71 entry or part of it): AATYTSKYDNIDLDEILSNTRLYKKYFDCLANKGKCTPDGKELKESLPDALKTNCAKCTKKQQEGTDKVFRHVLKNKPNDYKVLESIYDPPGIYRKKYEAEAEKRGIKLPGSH
T2 sequence (E7BLG4 entry or part of it): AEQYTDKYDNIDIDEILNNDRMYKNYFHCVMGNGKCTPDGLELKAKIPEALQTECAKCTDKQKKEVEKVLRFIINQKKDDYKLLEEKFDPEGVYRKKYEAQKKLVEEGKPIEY
T1 sequence (E7BLG5 entry or part of it): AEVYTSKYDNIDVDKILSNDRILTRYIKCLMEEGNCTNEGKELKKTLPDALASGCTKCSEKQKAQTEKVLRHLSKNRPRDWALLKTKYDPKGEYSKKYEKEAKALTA

- Ki [2]: 113 µM
- Kd [2, 9]: > 50 µM
- Ki [3]: 148 µM
- Kd [3, 10]: > 50 µM
- Kd [4, 11]: > 50 µM
SMILES: CCC/C=C/COC(=O)CCC [(E)-2-Hexenyl butyrate]
- EAG response in words [1]: elicited significant antennal responses from both male and female; also recorded: elicited high EAG responses
- binding to the three CSPs in words [5]: failed to bind with any of the three CSPs

SMILES: c1ccc(Nc2cccc3ccccc23)cc1 [1-NPN, N-phenyl-1-naphthylamine]
- Kd [6]: 1830 nM
- Kd [7]: 4.45 µM
- Kd [8]: 1920 nM

- Ki [2]: 92.5 µM
- Kd [2, 9]: > 50 µM
- Ki [3]: 101 µM
- Kd [3, 10]: > 50 µM
- Ki [4]: 95.2 µM
- Kd [4, 11]: > 50 µM
SMILES: CCCC(=O)OCC [Ethyl butyrate]
- EAG response in words [1]: elicited significant antennal responses from both male and female; also recorded: elicited high EAG responses
- binding to the three CSPs in words [5]: failed to bind with any of the three CSPs

- Ki [2]: 137 µM
- Kd [2, 9]: > 50 µM
- Kd [3, 10]: > 50 µM
- Ki [4]: 118 µM
- Kd [4, 11]: > 50 µM
- IC50 ([5]; displacement of 1-NPN, all three CSPs): > 50 µM
SMILES: CCCCCCCCCCCCCCCC(=O)O [hexadecanoic acid]
- EAG response in words [1]: did not elicit notably EAG responses

- Kd [2, 12]: 15.8 ± 1.68 µM
- Kd [3, 13]: 12.2 ± 1.82 µM
- Kd [4, 14]: 7.37 ± 2.49 µM
SMILES: CC/C=C\CCOC(C)=O [(Z)-3-Hexenyl acetate]
- EAG response, male versus female antennae [1]: significantly higher EAG responses from female antennae than from male antennae
- EAG response in words [1]: only elicited a high EAG response in the female

SMILES: C=C1CCC2CC1C2(C)C (stereo not drawn) [β-Pinene]
- EAG response in words [1]: failed to elicit high EAG response
- Kd ([2]; KD (µM) AlinCSP2, 1-NPN and protein at 2 µM, 50 mM Tris-HCl pH 7.4, KD calculated from IC50, mean of three measurements): 11.1 ± 1.91 µM
- Kd ([3]; KD (µM) AlinCSP3, 1-NPN and protein at 2 µM, 50 mM Tris-HCl pH 7.4, KD calculated from IC50, mean of three measurements): 12.4 ± 2.09 µM
- Kd ([4]; KD (µM) AlinCSP1, 1-NPN and protein at 2 µM, 50 mM Tris-HCl pH 7.4, KD calculated from IC50, mean of three measurements): 7.07 ± 1.41 µM

- Kd [2, 12]: 46.4 ± 0.82 µM
- Kd [3, 13]: 47.2 ± 1.18 µM
- Kd [4, 14]: 44.6 ± 0.75 µM
SMILES: CCCCCCCCCC [decane]
- EAG response, male versus female antennae [1]: significantly higher EAG responses from female antennae than from male antennae

From article PMC3416781, “Functional Characterizations of Chemosensory Proteins of the Alfalfa Plant Bug Adelphocoris lineolatus Indicate Their Involvement in Host Recognition” (PLoS ONE, 2012)
